In patent US10787452B2 (Vertex Pharmaceuticals Incorporated, priority 2012, dated 2020):

The compounds below were run on HCT116 colorectal cancer cells (assay: Cisplatin sensitization assay (96 h cell viability MTS)). Conditions: 96 h MTS, compound plus Cisplatin.
Assay type: cell-based
How it was run: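 Viability is measured with MTS reagent, added after 96 h and developed for 1 h at 37° C. Beforehand, cells receive compound and cisplatin simultaneously in a concentration matrix of 2-fold serial dilutions starting at 10 μM final.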
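Further: compound concentration needed to lower the Cisplatin-alone IC50 by a set fold.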

How did the “Cisplatin Sensitization Assay” value turn out when `CC(=O)N1CCN(c2c(F)cncc2NC(=O)c2c(N)nn3cc(F)cnc23)CC1` [I-N-275, N-(4-(4-acetylpiperazin-1-yl)-5-fluoropyridin-3-yl)-2-amino-6-fluoropyrazolo[1,5-a]pyrimidine-3-carboxamide] was run?
The value was “+++ (Compounds with a Cisplatin sensitization value of <0.02 μM are marked with “+++.”)”.

`Nc1nn2cc(F)cnc2c1C(=O)Nc1cncc(F)c1N1CCN(C(=O)C2CC2)CC1` [I-N-276, 2-amino-N-(4-(4-(cyclopropanecarbonyl)piperazin-1-yl)-5-fluoropyridin-3-yl)-6-fluoropyrazolo[1,5-a]pyrimidine-3-carboxamide] was tested. Which “Cisplatin Sensitization Assay” value did it give?
The value was “+++ (Compounds with a Cisplatin sensitization value of <0.02 μM are marked with “+++.”)”.

Which “Cisplatin Sensitization Assay” value does the source give for `Nc1nn2cc(F)cnc2c1C(=O)Nc1cncc(F)c1N1CCN(C(=O)C2COC2)CC1` [I-N-278, 2-amino-6-fluoro-N-(5-fluoro-4-(4-(oxetane-3-carbonyl)piperazin-1-yl)pyridin-3-yl)pyrazolo[1,5-a]pyrimidine-3-carboxamide] here?
Its value is “+++ (Compounds with a Cisplatin sensitization value of <0.02 μM are marked with “+++.”)”.

With `Nc1nn2cc(F)cnc2c1C(=O)Nc1cncc(F)c1N1CCN2C(=O)CCC[C@H]2C1` [I-N-279, (S)-2-amino-6-fluoro-N-(5-fluoro-4-(6-oxohexahydro-1H-pyrido[1,2-a]pyrazin-2(6H)-yl)pyridin-3-yl)pyrazolo[1,5-a]pyrimidine-3-carboxamide] as the compound, how does the “Cisplatin Sensitization Assay” value read?
Its value is “+++ (Compounds with a Cisplatin sensitization value of <0.02 μM are marked with “+++.”)”.

How did the “Cisplatin Sensitization Assay” value turn out when `Nc1nn2cc(F)cnc2c1C(=O)Nc1cncc(Cl)c1N1CCCC1` [I-N-281, 2-amino-N-(5-chloro-4-(pyrrolidin-1-yl)pyridin-3-yl)-6-fluoropyrazolo[1,5-a]pyrimidine-3-carboxamide] was run?
Its value is “+++ (Compounds with a Cisplatin sensitization value of <0.02 μM are marked with “+++.”)”.

`COCC1CCN(c2ccncc2NC(=O)c2c(N)nn3cc(F)cnc23)CC1` [I-N-282, 2-amino-6-fluoro-N-(4-(4-(methoxymethyl)piperidin-1-yl)pyridin-3-yl)pyrazolo[1,5-a]pyrimidine-3-carboxamide] was tested. Which “Cisplatin Sensitization Assay” value did it give?
The value was “+++ (Compounds with a Cisplatin sensitization value of <0.02 μM are marked with “+++.”)”.

How did the “Cisplatin Sensitization Assay” value turn out when `Cc1cncn1-c1ccncc1NC(=O)c1c(N)nn2cc(F)cnc12` [I-N-283, 2-amino-6-fluoro-N-(4-(5-methyl-1H-imidazol-1-yl)pyridin-3-yl)pyrazolo[1,5-a]pyrimidine-3-carboxamide] was run?
Its value is “++ (Compounds with a Cisplatin sensitization value >0.02 μM but <0.2 μM are marked with “++.”)”.

`Nc1nn2cc(F)cnc2c1C(=O)Nc1cncc(Cl)c1N1CCC(O)C1` (centres unmarked) [I-N-284, 2-amino-N-(5-chloro-4-(3-hydroxypyrrolidin-1-yl)pyridin-3-yl)-6-fluoropyrazolo[1,5-a]pyrimidine-3-carboxamide] was tested. Which “Cisplatin Sensitization Assay” value did it give?
Its value is “+++ (Compounds with a Cisplatin sensitization value of <0.02 μM are marked with “+++.”)”.

With `N#C[C@@H]1CCN(c2c(Cl)cncc2NC(=O)c2c(N)nn3cc(F)cnc23)C1` [I-N-285, (R)-2-amino-N-(5-chloro-4-(3-cyanopyrrolidin-1-yl)pyridin-3-yl)-6-fluoropyrazolo[1,5-a]pyrimidine-3-carboxamide] as the compound, how does the “Cisplatin Sensitization Assay” value read?
Its value is “++ (Compounds with a Cisplatin sensitization value >0.02 μM but <0.2 μM are marked with “++.”)”.

Which “Cisplatin Sensitization Assay” value does the source give for `CN1CC2CN(c3c(Cl)cncc3NC(=O)c3c(N)nn4cc(F)cnc34)CC2C1` (centres unmarked) [I-N-286, 2-amino-N-(5-chloro-4-(5-methylhexahydropyrrolo[3,4-c]pyrrol-2(1H)-yl)pyridin-3-yl)-6-fluoropyrazolo[1,5-a]pyrimidine-3-carboxamide] here?
Its value is “++ (Compounds with a Cisplatin sensitization value >0.02 μM but <0.2 μM are marked with “++.”)”.

`CS(=O)(=O)C1CCN(c2c(Cl)cncc2NC(=O)c2c(N)nn3cc(F)cnc23)C1` (centres unmarked) [I-N-287, 2-amino-N-(5-chloro-4-(3-(methylsulfonyl)pyrrolidin-1-yl)pyridin-3-yl)-6-fluoropyrazolo[1,5-a]pyrimidine-3-carboxamide] was tested. Which “Cisplatin Sensitization Assay” value did it give?
The value was “+++ (Compounds with a Cisplatin sensitization value of <0.02 μM are marked with “+++.”)”.

With `Nc1nn2cc(F)cnc2c1C(=O)Nc1cncc(F)c1N1CCC(n2ccnc2)CC1` [I-N-288, N-(4-(4-(1H-imidazol-1-yl)piperidin-1-yl)-5-fluoropyridin-3-yl)-2-amino-6-fluoropyrazolo[1,5-a]pyrimidine-3-carboxamide] as the compound, how does the “Cisplatin Sensitization Assay” value read?
The value was “+++ (Compounds with a Cisplatin sensitization value of <0.02 μM are marked with “+++.”)”.

Which “Cisplatin Sensitization Assay” value does the source give for `CN1CCN(C(=O)C2CCCN(c3c(F)cncc3NC(=O)c3c(N)nn4cc(F)cnc34)C2)CC1` (centres unmarked) [I-N-289, 2-amino-6-fluoro-N-(5-fluoro-4-(3-(4-methylpiperazine-1-carbonyl)piperidin-1-yl)pyridin-3-yl)pyrazolo[1,5-a]pyrimidine-3-carboxamide] here?
Its value is “++ (Compounds with a Cisplatin sensitization value >0.02 μM but <0.2 μM are marked with “++.”)”.

With `CN(C)C(=O)C1CCCN(c2ccncc2NC(=O)c2c(N)nn3cc(F)cnc23)C1` (centres unmarked) [I-N-290, 2-amino-N-(4-(3-(dimethylcarbamoyl)piperidin-1-yl)pyridin-3-yl)-6-fluoropyrazolo[1,5-a]pyrimidine-3-carboxamide] as the compound, how does the “Cisplatin Sensitization Assay” value read?
The value was “++ (Compounds with a Cisplatin sensitization value >0.02 μM but <0.2 μM are marked with “++.”)”.

`CN1CC[C@H](Oc2ccncc2NC(=O)c2c(N)nn3cc(F)cnc23)C1` [I-O-1, (S)-2-amino-6-fluoro-N-(4-((1-methylpyrrolidin-3-yl)oxy)pyridin-3-yl)pyrazolo[1,5-a]pyrimidine-3-carboxamide] was tested. Which “Cisplatin Sensitization Assay” value did it give?
Its value is “+++ (Compounds with a Cisplatin sensitization value of <0.02 μM are marked with “+++.”)”.

`CN(C)Cc1ccc(Oc2ccncc2NC(=O)c2c(N)nn3cc(F)cnc23)cn1` [I-O-3, 2-amino-N-(4-((6-((dimethylamino)methyl)pyridin-3-yl)oxy)pyridin-3-yl)-6-fluoropyrazolo[1,5-a]pyrimidine-3-carboxamide] was tested. Which “Cisplatin Sensitization Assay” value did it give?
Its value is “++ (Compounds with a Cisplatin sensitization value >0.02 μM but <0.2 μM are marked with “++.”)”.

With `COc1ccncc1NC(=O)c1c(N)nn2cc(F)cnc12` [I-O-4, 2-amino-6-fluoro-N-(4-methoxypyridin-3-yl)pyrazolo[1,5-a]pyrimidine-3-carboxamide] as the compound, how does the “Cisplatin Sensitization Assay” value read?
Its value is “++ (Compounds with a Cisplatin sensitization value >0.02 μM but <0.2 μM are marked with “++.”)”.

With `Nc1nn2cc(F)cnc2c1C(=O)Nc1cnccc1O[C@H]1CN2CCC1CC2` [I-O-5, (R)-2-amino-6-fluoro-N-(4-(quinuclidin-3-yloxy)pyridin-3-yl)pyrazolo[1,5-a]pyrimidine-3-carboxamide] as the compound, how does the “Cisplatin Sensitization Assay” value read?
Its value is “+++ (Compounds with a Cisplatin sensitization value of <0.02 μM are marked with “+++.”)”.

With `Nc1nn2cc(F)cnc2c1C(=O)Nc1cnccc1Oc1cccnc1` [I-O-7, 2-amino-6-fluoro-N-(4-(pyridin-3-yloxy)pyridin-3-yl)pyrazolo[1,5-a]pyrimidine-3-carboxamide] as the compound, how does the “Cisplatin Sensitization Assay” value read?
Its value is “++ (Compounds with a Cisplatin sensitization value >0.02 μM but <0.2 μM are marked with “++.”)”.

`Nc1nn2cc(F)cnc2c1C(=O)Nc1cnccc1OC1CCC(C(=O)O)CC1` (centres unmarked) [I-O-8, 4-((3-(2-amino-6-fluoropyrazolo[1,5-a]pyrimidine-3-carboxamido)pyridin-4-yl)oxy)cyclohexanecarboxylic acid] was tested. Which “Cisplatin Sensitization Assay” value did it give?
Its value is “+ (Compounds with a Cisplatin sensitization value >0.2 μM but <5 μM are marked with “+.”)”.
